Data published in patent US8394828B2 (Janssen Pharmaceutica, NV, priority 2003, dated 2013).
Values joined by “and” are separate entries in the source; they are usually repeats but may differ in a detail not shown here. Equal values may be shown once. Read-outs that look alike come from different tables or passages of the source.

Key:
[1] = target: T1, human VR1 (Homo sapiens, UniProt Q8NER1); assay: Human VR1 [3H] RTX binding assay; settings: for Ki: hVR1; for inhibition at 1 µM: compound at 1 μM
T1 construct: expressed in transfected cells; host or cells: HEK293
Procedure: Compounds of the present invention were tested for their ability to inhibit the binding of [^3H] RTX to hVR1 receptors in a [^3H]
HEK293 cells were transfected with human VR1 vanilloid receptors and washed with Hank's Balanced Salt Solution, dissociated with cell dissociation buffer (Sigma), and then centrifuged at 1000×g for 5 min. […] The pelleted membranes were kept in an −80° C. freezer.
Approximately 120 μg protein/ml from membranes were incubated with indicated concentrations of [^3H] RTX in 0.5 ml of the HEPES buffer (pH 7.4) containing 0.25 mg/mL fatty acid-free bovine serum albumin at 37° C. for 60 min. […] The tip of the microcentrifuge tube containing the pellet was cut off. Bound radioactivity was quantified by scintillation counting. Non-specific binding was tested in the presence of 200 nM unlabeled RTX.

[2] = target: T1, human VR1; assay: Human VR1 functional assay (intracellular Ca++, FLIPR, capsaicin challenge); format: cell-based
Procedure: The functional activity of the test compounds was determined by measuring changes in intracellular calcium concentration using a Ca^++-sensitive fluorescent dye and FLIPR™ technology.
EC50 or IC50 values were determined from dose-response studies.

[3] = 3H-RTX binding, read-out: 3H-RTX binding assay Ki hVR1
[4] = hVR1, capsaicin challenge, read-out: FLIPR functional assay IC50 hVR1
[5] = FLIPR functional assay IC50 hVR1 60 min, 60 min
[6] = 3H-RTX binding assay Ki hVR1, 3H-RTX binding

T1 sequence (Q8NER1 whole entry): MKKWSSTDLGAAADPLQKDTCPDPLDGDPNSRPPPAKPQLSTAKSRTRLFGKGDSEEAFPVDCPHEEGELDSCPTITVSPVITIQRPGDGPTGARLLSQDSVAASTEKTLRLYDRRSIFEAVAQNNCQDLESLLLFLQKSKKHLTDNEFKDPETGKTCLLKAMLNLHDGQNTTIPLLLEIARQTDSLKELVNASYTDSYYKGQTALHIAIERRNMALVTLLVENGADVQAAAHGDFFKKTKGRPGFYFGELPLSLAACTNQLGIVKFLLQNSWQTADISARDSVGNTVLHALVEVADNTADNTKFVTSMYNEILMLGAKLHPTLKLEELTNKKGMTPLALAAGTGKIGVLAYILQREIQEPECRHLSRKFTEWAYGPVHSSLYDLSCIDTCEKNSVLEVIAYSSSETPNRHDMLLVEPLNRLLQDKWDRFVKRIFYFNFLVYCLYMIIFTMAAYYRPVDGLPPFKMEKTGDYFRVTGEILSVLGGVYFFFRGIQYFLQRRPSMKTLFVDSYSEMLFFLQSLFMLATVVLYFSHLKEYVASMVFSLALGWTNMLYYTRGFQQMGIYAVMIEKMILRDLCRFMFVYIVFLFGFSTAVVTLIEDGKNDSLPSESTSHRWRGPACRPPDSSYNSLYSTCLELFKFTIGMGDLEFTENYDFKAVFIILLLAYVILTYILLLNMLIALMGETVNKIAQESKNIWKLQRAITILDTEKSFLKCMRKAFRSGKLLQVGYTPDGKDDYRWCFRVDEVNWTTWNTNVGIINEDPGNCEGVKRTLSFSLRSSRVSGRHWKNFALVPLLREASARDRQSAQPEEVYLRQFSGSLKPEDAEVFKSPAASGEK

`CCCCC(C)c1ccc(C(=O)Nc2cnc3ccccc3c2)cc1` (stereo not drawn) was tested, and the Ki [1, 3] was 13.2 nM and 15 nM and the IC50 [2, 4] was 1100 nM and 10000 nM.

For `CC(C)=CCC[C@H](C)CCN(C)c1ccc(C(=O)Nc2cnc3ccccc3c2)cc1`, the inhibition at 1 µM ([1]; 3H-RTX binding) was 105%, the Ki [1, 3] was 12.9 nM and the IC50 [2, 5] was 150 nM.

For `O=C(Nc1cnc2ccccc2c1)c1ccc(N2CC[C@@H]3CCCC[C@@H]3C2)cc1` (relative stereo) [cis-4-(Octahydro-isoquinolin-2-yl)-N-quinolin-3-yl-benzamide], the inhibition at 1 µM ([1]; 3H-RTX binding) was 105%, the Ki [1, 3] was 45.6 nM and the IC50 [2, 5] was 220 nM. The IC50 [2, 4] was 185 nM.

In the case of `O=C(Nc1cnc2ccccc2c1)c1ccc(N2CC[C@@H]3CCCC[C@@H]3C2)nc1` (relative stereo) [cis-6-(Octahydro-isoquinolin-2-yl)-N-quinolin-3-yl-nicotinamide], the inhibition at 1 µM ([1]; 3H-RTX binding) is reported as 99%, the Ki [1, 3] is reported as 36.8 nM and the IC50 [2, 4] is reported as 420 nM.

`O=C(Nc1cnc2ccccc2c1)c1ccc(N2CC[C@@H]3CCCC[C@H]3C2)nc1` (relative stereo) [trans-6-(Octahydro-isoquinolin-2-yl)-N-quinolin-3-yl-nicotinamide] gave an inhibition at 1 µM ([1]; 3H-RTX binding) of 104%, a Ki [1, 3] of 33.2 nM and an IC50 [2, 4] of 85 nM.

Compound `CC(=O)N1CCc2cc(C(=O)Nc3cnc4ccccc4c3)ccc21` [1-Acetyl-2,3-dihydro-1H-indole-5-carboxylic acid quinolin-3-ylamide] has an inhibition at 1 µM ([1]; 3H-RTX binding) of 1% and an IC50 [2, 4] of 3150 nM.

Compound `O=C(Nc1cnc2ccccc2c1)c1ccc2c(c1)CCN2C(=O)c1ccccc1` [1-Benzoyl-2,3-dihydro-1H-indole-5-carboxylic acid quinolin-3-ylamide] has an inhibition at 1 µM ([1]; 3H-RTX binding) of 3% and an IC50 [2, 4] of 1450 nM.

`CCCC(=O)N1CCc2cc(C(=O)Nc3cnc4ccccc4c3)ccc21` [1-Butyryl-2,3-dihydro-1H-indole-5-carboxylic acid quinolin-3-ylamide] gave an inhibition at 1 µM ([1]; 3H-RTX binding) of 2% and an IC50 [2, 4] of 1800 nM.

In the case of `O=C(Nc1cnc2ccccc2c1)c1ccc2c(c1)CCN2C(=O)C1CCCCC1` [1-Cyclohexanecarbonyl-2,3-dihydro-1H-indole-5-carboxylic acid quinolin-3-ylamide], the inhibition at 1 µM ([1]; 3H-RTX binding) is reported as 25% and the IC50 [2, 4] is reported as 1500 nM.

`O=C(Nc1cnc2ccccc2c1)c1ccc2c(c1)CCN2C1CCCCC1` [1-Cyclohexyl-2,3-dihydro-1H-indole-5-carboxylic acid quinolin-3-ylamide] showed an inhibition at 1 µM ([1]; 3H-RTX binding) of 103%, a Ki [1, 3] of 4.87 nM and an IC50 [2, 5] of 74 nM. It also gave an IC50 [2, 4] of 44 nM.

Work on `CC(C)n1c(C(F)(F)F)nc2cc(C(=O)Nc3cnc4ccccc4c3)ccc21` [1-Isopropyl-2-trifluoromethyl-1H-benzoimidazole-5-carboxylic acid quinolin-3-ylamide] yielded a Ki [1, 3] of 364 nM and an IC50 [2, 4] of 8000 nM.

`CN1CCCc2cc(C(=O)Nc3cnc4ccccc4c3)ccc21` [1-Methyl-1,2,3,4-tetrahydro-quinoline-6-carboxylic acid quinolin-3-ylamide] showed an inhibition at 1 µM ([1]; 3H-RTX binding) of 79%, a Ki [1, 3] of 341 nM and an IC50 [2, 4] of 690 nM.

With `CN1CCc2cc(C(=O)Nc3cnc4ccccc4c3)ccc21` [1-Methyl-2,3-dihydro-1H-indole-5-carboxylic acid quinolin-3-ylamide] the inhibition at 1 µM ([1]; 3H-RTX binding) was 12% and the IC50 [2, 4] was 900 nM.

For `CCCCCN1CCCc2cc(C(=O)Nc3cnc4ccccc4c3)ccc21` [1-Pentyl-1,2,3,4-tetrahydro-quinoline-6-carboxylic acid quinolin-3-ylamide], the Ki [1, 6] was 39.1 nM, the inhibition at 1 µM ([1]; 3H-RTX binding) was 93% and the IC50 [2, 5] was 470 nM. It also gave an IC50 [2, 4] of 1600 nM.

`CCCCCn1ccc2cc(C(=O)Nc3cnc4ccccc4c3)ccc21` [1-Pentyl-1H-indole-5-carboxylic acid quinolin-3-ylamide] was tested, and the Ki [1, 6] was 63.1 nM, the inhibition at 1 µM ([1]; 3H-RTX binding) was 95% and the IC50 [2, 5] was 150 nM.

With `CCCN1CCc2cc(C(=O)Nc3cnc4ccccc4c3)ccc21` [1-Propyl-2,3-dihydro-1H-indole-5-carboxylic acid quinolin-3-ylamide] the inhibition at 1 µM ([1]; 3H-RTX binding) was 93%, the Ki [1, 3] was 15.6 nM and the IC50 [2, 4] was 410 nM.

`O=C(Nc1cnc2ccccc2c1)c1ccc2c(c1)CCN2` [2,3-Dihydro-1H-indole-5-carboxylic acid quinolin-3-ylamide] was tested, and the inhibition at 1 µM ([1]; 3H-RTX binding) was 1% and the IC50 [2, 4] was 10500 nM.

`CCCCCNc1ccc(C(=O)Nc2cnc3ccccc3c2)c(Cl)c1` [2-Chloro-4-pentylamino-N-quinolin-3-yl-benzamide] gave an inhibition at 1 µM ([1]; 3H-RTX binding) of 40% and an IC50 [2, 4] of 10000 nM.

`CCCCCCCNc1ccccc1C(=O)Nc1cnc2ccccc2c1` [2-Heptylamino-N-quinolin-3-yl-benzamide] showed an inhibition at 1 µM ([1]; 3H-RTX binding) of 79%, a Ki [1, 3] of 1120 nM and an IC50 [2, 5] of 5000 nM. It also gave an IC50 [2, 4] of 1600 nM.

In the case of `O=C(Nc1cnc2ccccc2c1)c1ccc(N2CCCCC2)nc1` [3,4,5,6-Tetrahydro-2H-{1,2′}bipyridinyl-5′-carboxylic acid quinolin-3-ylamide], the Ki [1, 3] is reported as 20.5 nM, the IC50 [2, 5] is reported as 140 nM and the IC50 [2, 4] is reported as 4300 nM.

Compound `O=C(CCc1ccc2c(c1)CCN2CC1CCCCC1)Nc1cnc2ccccc2c1` [3-(1-Cyclohexylmethyl-2,3-dihydro-1H-indol-5-yl)-N-quinolin-3-yl-propionamide] has an inhibition at 1 µM ([1]; 3H-RTX binding) of 61%, a Ki [1, 3] of 512 nM and an IC50 [2, 4] of 1200 nM.

Compound `CCCn1ccc2cc(CCC(=O)Nc3cnc4ccccc4c3)ccc21` [3-(1-Propyl-1H-indol-5-yl)-N-quinolin-3-yl-propionamide] has an inhibition at 1 µM ([1]; 3H-RTX binding) of 59%, a Ki [1, 3] of 264 nM and an IC50 [2, 4] of 480 nM.

In the case of `CCCN1CCc2cc(CCC(=O)Nc3cnc4ccccc4c3)ccc21` [3-(1-Propyl-2,3-dihydro-1H-indol-5-yl)-N-quinolin-3-yl-propionamide], the inhibition at 1 µM ([1]; 3H-RTX binding) is reported as 51%, the Ki [1, 3] is reported as 1070 nM and the IC50 [2, 4] is reported as 1060 nM.

Compound `O=C(CCc1ccc(CC2CCCCC2)cc1)Nc1cnc2ccccc2c1` [3-(4-Cyclohexylmethyl-phenyl)-N-quinolin-3-yl-propionamide] has a Ki [1, 3] of 94.1 nM, an IC50 [2, 5] of 35 nM and an IC50 [2, 4] of 670 nM.

Work on `CCCCCc1ccc(C=CC(=O)Nc2cnc3ccccc3c2)cc1` [3-(4-Pentyl-phenyl)-N-quinolin-3-yl-acrylamide] yielded a Ki [1, 3] of 428 nM and an IC50 [2, 5] of 5200 nM.

In the case of `CCCCCc1ccc(CCC(=O)Nc2cnc3ccccc3c2)cc1` [3-(4-Pentyl-phenyl)-N-quinolin-3-yl-propionamide], the Ki [1, 3] is reported as 181 nM and the IC50 [2, 5] is reported as 590 nM.

In the case of `CCC(C)c1ccc(CCC(=O)Nc2cnc3ccccc3c2)cc1` (stereo not drawn) [3-(4-sec-Butyl-phenyl)-N-quinolin-3-yl-propionamide], the Ki [1, 3] is reported as 13.9 nM and the IC50 [2, 4] is reported as 1200 nM.

`CC(C)(C)c1ccc(C#CC(=O)Nc2cnc3ccccc3c2)cc1` [3-(4-tert-Butyl-phenyl)-propynoic acid quinolin-3-ylamide] was tested, and the IC50 [2, 4] was 66 nM.

`CCCCCCCN(C)c1cccc(C(=O)Nc2cnc3ccccc3c2)c1` [3-(Heptyl-methyl-amino)-N-quinolin-3-yl-benzamide] showed an inhibition at 1 µM ([1]; 3H-RTX binding) of 82%, a Ki [1, 3] of 142 nM and an IC50 [2, 4] of 8800 nM.

In the case of `CCCCCN(C)c1cccc(C(=O)Nc2cnc3ccccc3c2)c1` [3-(Methyl-pentyl-amino)-N-quinolin-3-yl-benzamide], the inhibition at 1 µM ([1]; 3H-RTX binding) is reported as 72%, the Ki [1, 3] is reported as 262 nM and the IC50 [2, 4] is reported as 500 nM.

With `O=C(Nc1cnc2ccccc2c1)c1cccc(NC2CCCCC2)c1` [3-Cyclohexylamino-N-quinolin-3-yl-benzamide] the inhibition at 1 µM ([1]; 3H-RTX binding) was 1% and the IC50 [2, 4] was 3200 nM.

Compound `CCCCCN(CCCCC)c1cccc(C(=O)Nc2cnc3ccccc3c2)c1` [3-Dipentylamino-N-quinolin-3-yl-benzamide] has an inhibition at 1 µM ([1]; 3H-RTX binding) of 93%, a Ki [1, 3] of 107 nM and an IC50 [2, 5] of 260 nM.

For `CCCCCCCNc1cccc(C(=O)Nc2cnc3ccccc3c2)c1` [3-Heptylamino-N-quinolin-3-yl-benzamide], the inhibition at 1 µM ([1]; 3H-RTX binding) was 20% and the IC50 [2, 4] was 10000 nM.

`O=C(CCc1ccc2c(c1)CCC2)Nc1cnc2ccccc2c1` [3-Indan-5-yl-N-quinolin-3-yl-propionamide] gave a Ki [1, 3] of 158 nM and an IC50 [2, 4] of 10000 nM.

In the case of `CCCCCN(C)c1ccc(C(=O)Nc2cnc3ccccc3c2)cc1C` [3-Methyl-4-(methyl-pentyl-amino)-N-quinolin-3-yl-benzamide], the inhibition at 1 µM ([1]; 3H-RTX binding) is reported as 107%, the Ki [1, 3] is reported as 37.9 nM and the IC50 [2, 4] is reported as 54 nM.

`CCCCCNc1ccc(C(=O)Nc2cnc3ccccc3c2)cc1C` [3-Methyl-4-pentylamino-N-quinolin-3-yl-benzamide] was tested, and the inhibition at 1 µM ([1]; 3H-RTX binding) was 81%, the Ki [1, 3] was 73.5 nM and the IC50 [2, 5] was 12 nM. The IC50 [2, 4] was 780 nM.

In the case of `CCCCCNc1cccc(C(=O)Nc2cnc3ccccc3c2)c1` [3-Pentylamino-N-quinolin-3-yl-benzamide], the inhibition at 1 µM ([1]; 3H-RTX binding) is reported as 12% and the IC50 [2, 4] is reported as 2700 nM.

Compound `CN(CCc1ccccc1)c1ccc(CCC(=O)Nc2cnc3ccccc3c2)cc1` [3-[4-(Methyl-phenethyl-amino)-phenyl]-N-quinolin-3-yl-propionamide] has an inhibition at 1 µM ([1]; 3H-RTX binding) of 90%, a Ki [1, 3] of 192 nM and an IC50 [2, 4] of 180 nM.

`O=C(Nc1cnc2ccccc2c1)c1ccc(NC2CCCCCC2)cc1` [4-Cycloheptylamino-N-quinolin-3-yl-benzamide] showed an IC50 [2, 4] of 730 nM.

Compound `CC1(C)CCC(C)(C)c2cc(C=CC(=O)Nc3cnc4ccccc4c3Cl)ccc21` [N-(4-Chloro-quinolin-3-yl)-3-(5,5,8,8-tetramethyl-5,6,7,8-tetrahydro-naphthalen-2-yl)-acrylamide] has an IC50 [2, 4] of 30 nM.

Compound `CN(c1ccc(C(=O)Nc2cnc3ccccc3c2Cl)cc1)C1CCCCC1` [N-(4-Chloro-quinolin-3-yl)-4-(cyclohexyl-methyl-amino)-benzamide] has an IC50 [2, 4] of 107 nM.

`CC1(C)CCC(C)(C)c2cc(C=CC(=O)Nc3cnc4ccccc4c3)ccc21` [N-Quinolin-3-yl-3-(5,5,8,8-tetramethyl-5,6,7,8-tetrahydro-naphthalen-2-yl)-acrylamide] was tested, and the IC50 [2, 4] was 65 nM.
